From US9914932B2, “Agrobacterium-mediated transformation of lipomyces” (Battelle Memorial Institute, priority 2014, dated 2018)

Experiments:
[1] = tested on: L. lipofer (NRRL Y-11555); test: Antibiotic growth suppression on SC medium agar plates; format: cell-based, Lipomyces lipofer; conditions: 100 mg/l, 30° C., FIG. 3
Text: (§1) For effective selection of transgene expression in Lipomyces strains, several antibiotics were chosen to examine their effects on Lipomyces growth on yeast synthetic complete (SC, Sunrise Science Products, San Diego, Calif.) and yeast extract-peptone-detrose (YPD) medium plates, which included phosphinothricin ammonium (basta), geneticin (G418), hygromycin B (hyg), pyrithiamine and Zeocin (Zeo). Two day old Lipomyces cells grown in YPD liquid culture were used for evaluation of the antibiotic selection on the agar plates of SC or YPD. The original cells were diluted sequentially in 1:10 ratio with dH2O for four times and 10 μl cells from original culture and each dilution were spotted onto the proper agar medium plates. The plates were incubated in 30° C. incubator for 3 days. The inhibition effects of selected antibiotics on the selected plate were documented with Nikon D300s SLR digital camera (Nikon Inc., Melville, N.Y.) or the stereomicroscope-Leica MZ16 (Leica Microsystems, Buffalo Grove, Ill.).
(§2) About 5 to 10 colonies of 4 day old Lipomyces strains (except L. lipofer NRRL Y-11555 that required additional 4 days growth and more colonies due to its slow growth) grown on YPD medium agar plates were transferred into a 50 ml YPD liquid flask culture and grown at 30° C. and 200 rpm for 50 hrs. […]

L. starkeyi = test: Antibiotic growth suppression on yeast synthetic complete (SC) medium agar plates; format: cell-based, Lipomyces starkeyi; conditions: 30° C.
Text: as §1, §2

[2] = tested on: all L. starkeyi strains and Lipomyces species; test: Hygromycin B growth suppression on YPD agar plates; format: cell-based, Lipomyces sp.; conditions: 30° C., all strains and species except L. suomiensis NRRL Y-17356, FIG. 4
Text: as §1, §2

[3] = tested on: parent Lipomyces strains (Y-); test: Hygromycin resistance of parent Lipomyces cells, 1/10 series dilutions on YPD agar plates; format: cell-based, Lipomyces sp.; conditions: 10 or 25 mg/l hygromycin B with 250 mg/L cefotaxime, FIG. 10
Procedure: The hygromycin resistance of parent and transformed Lipomyces cells in a 1/10 series dilutions were compared on the same YPD agar plates with either 10 or 25 mg/l hygromycin B (hyg10 or hyg25, respectively) and 250 mg/L cefotaxime. […] The integration of pTef1-hph transgene expression cassette (FIG. 11A) was also confirmed by Southern blotting analysis which indicated 1 to 2 copies of the gene were inserted (FIG. 11B).

[4] = tested on: L. doorenjongii (NRRL Y-27504); test: Antibiotic growth suppression on SC medium agar plates; format: cell-based, Lipomyces doorenjongii; conditions: 100 mg/l, 30° C., FIG. 3
Text: as §1, §2

Lipomyces strains = test: Hygromycin B inhibition on Aspergillus minimal medium; format: cell-based, Lipomyces sp.; conditions: 10 mg/l
[5] = tested on: L. suomiensis strain NRRL Y-17356; test: Hygromycin B growth suppression on YPD agar plates; format: cell-based, Lipomyces suomiensis; conditions: 30° C., L. suomiensis NRRL Y-17356, FIG. 4
Text: as §1, §2

## CN[C@H]1C[C@@H](N)[C@H](O)[C@@H](O[C@@H]2O[C@H](CO)[C@H](O)[C@@H]3OC4(O[C@H]23)O[C@H]([C@@H](N)CO)[C@H](O)[C@H](O)[C@H]4O)[C@@H]1O (some centres unmarked) [hygromycin B]
[1]
  growth suppression of L. lipofer (NRRL Y-11555): effectively suppress the growth
L. starkeyi; 100 mg/l hygromycin B, FIG. 2
  growth selection (growth suppression) of L. starkeyi: effective
L. starkeyi; 100 mg/l, FIG. 3
  growth suppression of three other L. starkeyi strains (NRRL Y-27493, NRRL Y-27494, NRRL Y-27495): effectively suppress the growth
[2]
  concentration sufficient to suppress the growth: 2.5 mg/L
[3]
  growth of parent strains under hygromycin selection: severely suppressed
[4]
  growth suppression of L. doorenjongii (NRRL Y-27504): effectively suppress the growth
Lipomyces strains
  inhibition of Lipomyces strains: effective inhibition
[5]
  concentration needed to suppress the growth: at least 10 mg/l
